Values of other authors as cited in US20050119246A1, “1H-pyrazolyl derivative compounds, for use in diseases associated with the 5-ht2c receptor” (Bayer Pharmaceuticals Corporation, priority 2001, published 2005).

Experiments:
5-HT2C receptor = molecular target: T1, 5-HT2C receptor (Homo sapiens, UniProt P28335); conditions: background statement; comparator receptors not named
T1 sequence (P28335 33-458): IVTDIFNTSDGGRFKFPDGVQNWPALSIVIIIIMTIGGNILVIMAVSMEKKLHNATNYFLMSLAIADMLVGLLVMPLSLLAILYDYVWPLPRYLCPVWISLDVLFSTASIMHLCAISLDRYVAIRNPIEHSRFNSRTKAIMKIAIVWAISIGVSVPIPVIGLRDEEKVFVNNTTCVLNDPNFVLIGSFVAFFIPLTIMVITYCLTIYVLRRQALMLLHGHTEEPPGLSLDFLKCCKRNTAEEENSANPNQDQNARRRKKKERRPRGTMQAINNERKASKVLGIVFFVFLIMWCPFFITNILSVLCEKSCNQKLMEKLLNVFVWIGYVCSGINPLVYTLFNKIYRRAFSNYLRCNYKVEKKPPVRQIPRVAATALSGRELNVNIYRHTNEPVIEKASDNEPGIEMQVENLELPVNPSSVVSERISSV

5-HT2 receptors = conditions: background statement

pKi for the 5-HT2 receptors (5-HT2 receptors)	selectivity for the 5-HT2 receptors over 5-HT1 receptors (5-HT2 receptors)	Compound	selectivity of 5-HT2C receptor antagonist (5-HT2C receptor)
–	–	Cc1cc2c(cc1Cl)N(C(=O)Nc1ccc(Oc3cccnc3C)nc1)CC2 [SB-242084]	at least 100 fold
8.9	10,000 fold	Cc1nc2sccn2c(=O)c1CCN1CCC(=C(c2ccc(F)cc2)c2ccc(F)cc2)CC1 [ritanserin]	–
